Test results published in ChEMBL document CHEMBL3797124, “Synthesis of azepino[4,5-b]indol-4-ones via MCR/free radical cyclization and in vitro-in silico studies as 5-Ht₆R ligands” (Bioorg Med Chem Lett, 2016).

Tests used:
[1] = biological target: 5-hydroxytryptamine receptor 6 (Rattus norvegicus) (UniProt P31388); test: Displacement of [3H]-LSD from rat 5-Ht6 receptor expressed in HEK cells at 10 uM after 60 mins by liquid scintillation counting; assay type: cell-based; details: HEK293
[2] = biological target: 5-hydroxytryptamine receptor 6 (Rattus norvegicus, UniProt P31388); test: Displacement of [3H]-LSD from rat 5-Ht6 receptor expressed in HEK cells after 60 mins by liquid scintillation counting; assay type: cell-based, HEK293
Sequence of 5-hydroxytryptamine receptor 6 (P31388 whole entry): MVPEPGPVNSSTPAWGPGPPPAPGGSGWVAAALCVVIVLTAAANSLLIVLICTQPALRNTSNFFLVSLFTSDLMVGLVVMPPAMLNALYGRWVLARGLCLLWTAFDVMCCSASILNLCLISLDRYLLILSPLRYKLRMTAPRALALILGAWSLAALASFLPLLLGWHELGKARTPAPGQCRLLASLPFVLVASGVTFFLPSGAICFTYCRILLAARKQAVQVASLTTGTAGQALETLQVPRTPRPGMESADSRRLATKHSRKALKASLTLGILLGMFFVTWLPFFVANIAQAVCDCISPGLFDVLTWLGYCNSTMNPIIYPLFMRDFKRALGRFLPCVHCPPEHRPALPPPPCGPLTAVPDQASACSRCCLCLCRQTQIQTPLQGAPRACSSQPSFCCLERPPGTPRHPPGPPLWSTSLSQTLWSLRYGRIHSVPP

Sequence of 5-hydroxytryptamine receptor 6 (Rattus norvegicus) (P31388 whole entry): as above

SMILES | inhibition [1] [%] | log(%) [1] | Ki [2] [µM]
CC(C)(C)n1nnnc1C(c1ccc2c(c1)OCO2)N1CCc2c([nH]c3ccccc23)CC1=O (stereo not drawn) | 12 | 1.08 | –
CC(C)(C)n1nnnc1C(C1CCCCC1)N1CCc2c([nH]c3ccccc23)CC1=O (stereo not drawn) | 2 | 0.3 | –
Cc1cccc(C)c1-n1nnnc1C(c1ccc(Cl)cc1)N1CCc2c([nH]c3ccccc23)CC1=O (stereo not drawn) | 19 | 1.28 | –
O=C1Cc2[nH]c3ccccc3c2CCN1C(c1ccc(Cl)cc1)c1nnnn1C1CCCCC1 (stereo not drawn) | 17 | 1.23 | –
CSc1ccc2c(c1)C(N1CCN(C)CC1)Cc1ccccc1S2 (stereo not drawn) | 100 | 2 | –
Cc1cccc(C)c1-n1nnnc1C(C1CCCCC1)N1CCc2c([nH]c3ccccc23)CC1=O (stereo not drawn) | 3 | 0.48 | –
COc1cccc(C(c2nnnn2C(C)(C)C)N2CCc3c([nH]c4ccccc34)CC2=O)c1OC (stereo not drawn) | 16 | 1.2 | –
CN(C)c1ccc(C(c2nnnn2C(C)(C)C)N2CCc3c([nH]c4ccccc34)CC2=O)cc1 (stereo not drawn) | 1 | 0 | –
Cc1cccc(C)c1NC(=O)C(C1CCCCC1)N1CCc2c([nH]c3ccccc23)CC1=O (stereo not drawn) | 7 | 0.85 | –

Second part, the molecule after the results:

inhibition [1] [%] | log(%) [1] | Ki [2] [µM] | SMILES
16 | 1.2 | – | CN(C)c1ccc(C(C(=O)NC(C)(C)C)N2CCc3c([nH]c4ccccc34)CC2=O)cc1 (stereo not drawn)
10 | 1 | – | CC(C)(C)NC(=O)C(C1CCCCC1)N1CCc2c([nH]c3ccccc23)CC1=O (stereo not drawn)
21 | 1.32 | – | Cc1cccc(C)c1NC(=O)C(c1ccc(Cl)cc1)N1CCc2c([nH]c3ccccc23)CC1=O (stereo not drawn)
66 | 1.82 | – | CC(C)(C)NC(=O)C(c1ccc(Br)cc1)N1CCc2c([nH]c3ccccc23)CC1=O (stereo not drawn)
42 | 1.62 | – | CC(C)(C)NC(=O)C(c1ccc(Cl)cc1)N1CCc2c([nH]c3ccccc23)CC1=O (stereo not drawn)
– | 1.98 | 0.211 | COc1cccc(C(C(=O)NC(C)(C)C)N2CCc3c([nH]c4ccccc34)CC2=O)c1OC (stereo not drawn)
57 | 1.76 | – | CC(C)(C)n1nnnc1C(c1ccc(Br)cc1)N1CCc2c([nH]c3ccccc23)CC1=O (stereo not drawn)
7 | 0.85 | – | CC(C)(C)NC(=O)C(c1ccc2c(c1)OCO2)N1CCc2c([nH]c3ccccc23)CC1=O (stereo not drawn)
15 | 1.18 | – | O=C(NC1CCCCC1)C(c1ccc(Cl)cc1)N1CCc2c([nH]c3ccccc23)CC1=O (stereo not drawn)
41 | 1.04 | – | CC(C)(C)n1nnnc1C(c1ccc(Cl)cc1)N1CCc2c([nH]c3ccccc23)CC1=O (stereo not drawn)
